Test results from patent US6737383B1, “Herbicidal oxadiazolidines” (priority 1999, dated 2004).

Key:
bedstraw = assay: Test B pre/postemergence bedstraw; assay type: in vivo, Galium aparine
Method in brief: (§1)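 Test chemicals in a non-phytotoxic solvent mixture with surfactant were sprayed preemergence onto planted seeds and postemergence onto plants 2 to 18 cm tall (1- to 4-leaf stage). After twelve to sixteen days in a greenhouse, injury was visually rated against untreated controls from 0 (no effect) to 10 (complete control).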

blackgrass = assay: Test B pre/postemergence blackgrass; assay type: in vivo, Alopecurus myosuroides
Method in brief: as §1

giant foxtail = assay: Test B pre/postemergence giant foxtail; assay type: in vivo, Setaria faberii
Method in brief: as §1

morningglory = assay: Test B pre/postemergence morningglory; assay type: in vivo, Ipomoea hederacea
Method in brief: as §1

pigweed = assay: Test B pre/postemergence pigweed; assay type: in vivo, Amaranthus retroflexus
Method in brief: as §1

rape = assay: Test B pre/postemergence rape; assay type: in vivo, Brassica napus
Method in brief: as §1

soybean = assay: Test B pre/postemergence soybean; assay type: in vivo, Glycine max
Method in brief: as §1

sugar beet = assay: Test B pre/postemergence sugar beet; assay type: in vivo, Beta vulgaris
Method in brief: as §1

velvetleaf = assay: Test B pre/postemergence velvetleaf; assay type: in vivo, Abutilon theophrasti
Method in brief: as §1

wheat = assay: Test B pre/postemergence wheat; assay type: in vivo, Triticum aestivum
Method in brief: as §1

wild oat = assay: Test B pre/postemergence wild oat; assay type: in vivo, Avena fatua
Method in brief: as §1

purple nutsedge = assay: Test B pre/postemergence purple nutsedge; assay type: in vivo, Cyperus rotundus
Method in brief: as §1

rice = assay: Test B flood test rice; assay type: in vivo, Oryza sativa
Method in brief: (§2)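 Flood test on plants grown to the 2-leaf stage; treated plants kept in greenhouse twelve to sixteen days, then visually rated against controls on a 0 (no effect) to 10 (complete control) scale.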

smallflower flatsedge = assay: Test B flood test smallflower flatsedge; assay type: in vivo, Cyperus difformis
Method in brief: as §2

duck salad = assay: Test B flood test duck salad; assay type: in vivo, Heteranthera limosa
Method in brief: as §2

bamyardgrass = assay: Test B flood test barnyardgrass; assay type: in vivo, Echinochloa crus-galli
Method in brief: as §2

[1] = Preemergence, Rate 62 g/ha, scale of 0 to 10 where 0 is no effect and 10 is complete control
[2] = Preemergence, Rate 250 g/ha, scale of 0 to 10 where 0 is no effect and 10 is complete control
[3] = Preemergence, Rate 500 g/ha, scale of 0 to 10 where 0 is no effect and 10 is complete control
[4] = Rate 62 g/ha, Postemergence, scale of 0 to 10 where 0 is no effect and 10 is complete control
[5] = Rate 125 g/ha, Postemergence, scale 0 to 10
[6] = Rate 125 g/ha, Preemergence, scale of 0 to 10 where 0 is no effect and 10 is complete control
[7] = Rate 500 g/ha, Postemergence, scale 0 to 10, 0 no effect, 10 complete control
[8] = Rate 62 g/ha, headed Pre-emergence (flood test species), scale 0 to 10 (0 no effect, 10 complete control)
[9] = Rate 125 g/ha, Pre-emergence, flood test species, scale 0 to 10 where 0 is no effect and 10 is complete control
[10] = Rate 250 g/ha, Pre-emergence, flood-test species, scale 0 to 10, 0 is no effect, 10 is complete control
[11] = Rate 500 g/ha, Pre-emergence, flood test species, scale 0 to 10 (0 no effect, 10 complete control)

CCCCc1ccc(N(C(=O)n2oc(=O)n(-c3ccccc3C)c2=O)C(C)C)cc1 [Compound 229] was tested, and the “Bedstraw plant response rating” value (bedstraw; [1]) was 0, the “Bedstraw plant response rating” value (bedstraw; [2]) was 0 and the “Plant response rating, Bedstraw” value (bedstraw; [3]) was 0. The “Bedstraw plant response rating” value (bedstraw; [4]) was 0, the “Bedstraw plant response rating” value (bedstraw; [5]) was 0 and the “Bedstraw plant response rating” value (bedstraw; [6]) was 0. For the same compound, the “Plant response rating (0 to 10; 0 is no effect, 10 is complete control), Bedstraw” value (bedstraw; Rate 250 g/ha, Postemergence) was 0, the “Bedstraw plant response rating” value (bedstraw; [7]) was 0 and the “Blackgrass plant response rating” value (blackgrass; [1]) was 0. For the same compound, the “Blackgrass plant response rating” value (blackgrass; [2]) was 0, the “Plant response rating, Blackgrass” value (blackgrass; [3]) was 0 and the “Blackgrass plant response rating” value (blackgrass; [4]) was 0. The “Blackgrass plant response rating” value (blackgrass; [5]) was 0, the “Blackgrass plant response rating” value (blackgrass; [6]) was 0 and the “Plant response rating (0 to 10; 0 is no effect, 10 is complete control), Blackgrass” value (blackgrass; Rate 250 g/ha, Postemergence) was 0. The “Blackgrass plant response rating” value (blackgrass; [7]) was 0, the “Giant foxtail plant response rating” value (giant foxtail; [1]) was 0 and the “Giant foxtail plant response rating” value (giant foxtail; [2]) was 0. The “Plant response rating, Giant foxtail” value (giant foxtail; [3]) was 0, the “Giant foxtail plant response rating” value (giant foxtail; [4]) was 0 and the “Giant foxtail plant response rating” value (giant foxtail; [5]) was 0. The “Giant foxtail plant response rating” value (giant foxtail; [6]) was 0, the “Plant response rating (0 to 10; 0 is no effect, 10 is complete control), Giant foxtail” value (giant foxtail; Rate 250 g/ha, Postemergence) was 0 and the “Giant foxtail plant response rating” value (giant foxtail; [7]) was 0. The “Morningglory plant response rating” value (morningglory; [1]) was 0, the “Morningglory plant response rating” value (morningglory; [2]) was 0 and the “Plant response rating, Morningglory” value (morningglory; [3]) was 0. The “Morningglory plant response rating” value (morningglory; [4]) was 0, the “Morningglory plant response rating” value (morningglory; [5]) was 0 and the “Morningglory plant response rating” value (morningglory; [6]) was 0. The “Plant response rating (0 to 10; 0 is no effect, 10 is complete control), Morningglory” value (morningglory; Rate 250 g/ha, Postemergence) was 0, the “Morningglory plant response rating” value (morningglory; [7]) was 0 and the “Redroot pigweed plant response rating” value (pigweed; [1]) was 0. The “Redroot pigweed plant response rating” value (pigweed; [2]) was 0, the “Plant response rating, Redroot pigweed” value (pigweed; [3]) was 0 and the “Redroot pigweed plant response rating” value (pigweed; [4]) was 0. The “Redroot pigweed plant response rating” value (pigweed; [5]) was 0, the “Redroot pigweed plant response rating” value (pigweed; [6]) was 0 and the “Plant response rating (0 to 10; 0 is no effect, 10 is complete control), Redroot pigweed” value (pigweed; Rate 250 g/ha, Postemergence) was 0. The “Redroot pigweed plant response rating” value (pigweed; [7]) was 0, the “Rape plant response rating” value (rape; [1]) was 0 and the “Rape plant response rating” value (rape; [2]) was 0. The “Plant response rating, Rape” value (rape; [3]) was 0, the “Rape plant response rating” value (rape; [4]) was 0 and the “Rape plant response rating” value (rape; [5]) was 0. The “Rape plant response rating” value (rape; [6]) was 0, the “Plant response rating (0 to 10; 0 is no effect, 10 is complete control), Rape” value (rape; Rate 250 g/ha, Postemergence) was 0 and the “Rape plant response rating” value (rape; [7]) was 0. The “Soybean plant response rating” value (soybean; [1]) was 0, the “Soybean plant response rating” value (soybean; [2]) was 0 and the “Plant response rating, Soybean” value (soybean; [3]) was 0. The “Soybean plant response rating” value (soybean; [4]) was 0, the “Soybean plant response rating” value (soybean; [5]) was 0 and the “Soybean plant response rating” value (soybean; [6]) was 0. The “Plant response rating (0 to 10; 0 is no effect, 10 is complete control), Soybean” value (soybean; Rate 250 g/ha, Postemergence) was 1, the “Soybean plant response rating” value (soybean; [7]) was 2 and the “Sugarbeets plant response rating” value (sugar beet; [1]) was 0. The “Sugarbeets plant response rating” value (sugar beet; [2]) was 0, the “Plant response rating, Sugarbeets” value (sugar beet; [3]) was 0 and the “Sugarbeets plant response rating” value (sugar beet; [4]) was 0. The “Sugarbeets plant response rating” value (sugar beet; [5]) was 0, the “Sugarbeets plant response rating” value (sugar beet; [6]) was 0 and the “Plant response rating (0 to 10; 0 is no effect, 10 is complete control), Sugarbeets” value (sugar beet; Rate 250 g/ha, Postemergence) was 0. For the same compound, the “Sugarbeets plant response rating” value (sugar beet; [7]) was 0, the “Velvetleaf plant response rating” value (velvetleaf; [1]) was 0 and the “Velvetleaf plant response rating” value (velvetleaf; [2]) was 0. The “Plant response rating, Velvetleaf” value (velvetleaf; [3]) was 0, the “Velvetleaf plant response rating” value (velvetleaf; [4]) was 0 and the “Velvetleaf plant response rating” value (velvetleaf; [5]) was 0. The “Velvetleaf plant response rating” value (velvetleaf; [6]) was 0, the “Plant response rating (0 to 10; 0 is no effect, 10 is complete control), Velvetleaf” value (velvetleaf; Rate 250 g/ha, Postemergence) was 0 and the “Velvetleaf plant response rating” value (velvetleaf; [7]) was 2. The “Wheat plant response rating” value (wheat; [1]) was 0, the “Wheat plant response rating” value (wheat; [2]) was 0 and the “Plant response rating, Wheat” value (wheat; [3]) was 0. For the same compound, the “Wheat plant response rating” value (wheat; [4]) was 0, the “Wheat plant response rating” value (wheat; [5]) was 0 and the “Wheat plant response rating” value (wheat; [6]) was 0. The “Plant response rating (0 to 10; 0 is no effect, 10 is complete control), Wheat” value (wheat; Rate 250 g/ha, Postemergence) was 0, the “Wheat plant response rating” value (wheat; [7]) was 0 and the “Wild oats plant response rating” value (wild oat; [1]) was 0. The “Wild oats plant response rating” value (wild oat; [2]) was 0, the “Plant response rating, Wild oats” value (wild oat; [3]) was 0 and the “Wild oats plant response rating” value (wild oat; [4]) was 0. For the same compound, the “Wild oats plant response rating” value (wild oat; [5]) was 0, the “Wild oats plant response rating” value (wild oat; [6]) was 0 and the “Plant response rating (0 to 10; 0 is no effect, 10 is complete control), Wild oats” value (wild oat; Rate 250 g/ha, Postemergence) was 0. The “Wild oats plant response rating” value (wild oat; [7]) was 0, the “Nutsedge plant response rating” value (purple nutsedge; [1]) was 0 and the “Nutsedge plant response rating” value (purple nutsedge; [2]) was 0. The “Plant response rating, Nutsedge” value (purple nutsedge; [3]) was 0, the “Nutsedge plant response rating” value (purple nutsedge; [4]) was 0 and the “Nutsedge plant response rating” value (purple nutsedge; [5]) was 0. For the same compound, the “Nutsedge plant response rating” value (purple nutsedge; [6]) was 0, the “Plant response rating (0 to 10; 0 is no effect, 10 is complete control), Nutsedge” value (purple nutsedge; Rate 250 g/ha, Postemergence) was 0 and the “Nutsedge plant response rating” value (purple nutsedge; [7]) was 0. The “Rice plant response rating” value (rice; [8]) was 0, the “Rice plant response rating” value (rice; [9]) was 0 and the “Rice plant response rating” value (rice; [10]) was 0. For the same compound, the “Rice plant response rating” value (rice; [11]) was 0, the “S. Flatsedge plant response rating” value (smallflower flatsedge; [8]) was 0 and the “S. Flatsedge plant response rating” value (smallflower flatsedge; [9]) was 0. The “S. Flatsedge plant response rating” value (smallflower flatsedge; [10]) was 0, the “S. Flatsedge plant response rating” value (smallflower flatsedge; [11]) was 0 and the “Ducksalad plant response rating” value (duck salad; [8]) was 0. For the same compound, the “Ducksalad plant response rating” value (duck salad; [9]) was 0, the “Ducksalad plant response rating” value (duck salad; [10]) was 0 and the “Ducksalad plant response rating” value (duck salad; [11]) was 0. For the same compound, the “Barnyardgrass plant response rating” value (bamyardgrass; [8]) was 0, the “Barnyardgrass plant response rating” value (bamyardgrass; [9]) was 0 and the “Barnyardgrass plant response rating” value (bamyardgrass; [10]) was 0. For the same compound, the “Barnyardgrass plant response rating” value (bamyardgrass; [11]) was 0.
